We go through 2 molecules from patent US20250032504A1, “NOVEL APPLICATION OF KINASE INHIBITOR” (TRANSTHERA SCIENCES (NANJING), INC., priority 2021, published 2025).

The structures appear in SMILES notation.

In assay [1] the test system is human prostate cancer LD1-0034-361929 subcutaneous xenograft tumor model. Nature of the assay: In-vivo pharmacodynamic study on human castration resistant prostate cancer PDX subcutaneous tumor model. Conditions: abiraterone-resistant CRPC PDX in nude mice, oral intragastric Qd, 39 days, compound 29 15 mg/kg, abiraterone 200 mg/kg; for TGI (%): TGI=1−T/C. Also noted: species or system male Nu/Nu nude mice. On the procedure:
Test sample: compound 29 of the present invention, the structure of which is shown above, and which was prepared as described in the detailed description of WO2018108079A1. Abiraterone was obtained from commercially available sources.
Animals, information on the patient from whom the tumor masses were derived, and other materials: human prostate cancer tumor sample LD1-0034-361929, derived from a patient resistant to abiraterone; clinical diagnosis: castration resistant prostate cancer with bladder metastatic lesions, pathological diagnosis: prostate cancer-poorly differentiated adenocarcinoma; • male Nu/Nu nude mice, aged 6-8 weeks.
The tumor masses were inoculated into the right back of mice, and the animals were weighed before administration. Tumor volumes were measured, and grouping was designed in blocks according to the tumor volumes.
Administration was carried out as in the table below.
The animals were monitored daily for health status and mortality, body weight and tumor volume were measured twice a week, and samples were collected after the last administration. The therapeutic effect on tumor volume was evaluated by TGI %, wherein the relative tumor inhibition rate TGI (%): TGI=1−T/C (%). T/C % is the relative tumor proliferation rate, i.e., the percentage of the relative tumor volume in the treatment and control groups at a given time point. T and C are relative tumor volumes (RTVs) of the treatment and control groups at a given time point, respectively. The calculation formula is as follows: T/C %=TRTV/CRTV×100% (TRTV: mean RTV for treatment group; CRTV: mean RTV for vehicle control group; RTV=Vt/V0, wherein V0 is the tumor volume of the animal at the time of grouping, and Vt is the tumor volume of the animal after treatment).

Assay [2] has as its system DU145. The assay is described as follows: Prostate cancer cell proliferation assay (Cell titer-Glo, 72 h), DU145. Format: cell-based. Conditions: Homo sapiens, DU-145, DU145 cells, inhibition of proliferation, read-out: Compound IC50/nM. On the procedure: (§1) Prostate cancer cell materials: DU145, PC-3, VCaP, and LNCaP clone FGC.
(§2) Test instrument: PE Envision multimode microplate reader.
(§3) Each cell line was seeded in a 384-well plate for adherent culture overnight, and then compounds at different concentrations (10 dose groups, serial 4-fold dilution with DMSO) were added to give a maximum final concentration of 10000 nM, wherein the final DMSO content was 0.33%, and staurosporine at a final concentration of 10 μM was used as a system positive control ([…] inhibition). Negative control wells contained medium with the same amount of DMSO (0% inhibition). The plate was incubated at 37° C., 5% CO2 and 95% humidity for 72 h for later test. 30 μL of Cell titer-Glo reagent was added to each well, and after the plate was incubated at room temperature for 30 min, the final data were read using the microplate reader.
(§4) The data were calculated as follows:
(§5) Inhibition rate (%)=100%−(compound signal−system positive control signal)/(negative control signal−system positive control signal)[…].
On the technique in general: ATP-based viability assays read luminescence as a measure of living cells.

For assay [3], the system named is PC-3. The assay is described as follows: Prostate cancer cell proliferation assay (Cell titer-Glo, 72 h), PC-3. Format: cell-based. Conditions: Homo sapiens, PC-3 cells, inhibition of proliferation, read-out: Compound IC50/nM. On the procedure:
as §1, §2, §3, §4, §5

Assay [4] deals with VCaP. The assay is described as follows: Prostate cancer cell proliferation assay (Cell titer-Glo, 72 h), VCaP. Format: cell-based. Conditions: Homo sapiens, VCaP cells, inhibition of proliferation, read-out: Compound IC50/nM. On the procedure: as §1, §2, §3, §4, §5
Assay [5] concerns LNCaP clone FGC. The assay is described as follows: Prostate cancer cell proliferation assay (Cell titer-Glo, 72 h), LNCaP clone FGC. It is filed as cell-based. Conditions: Homo sapiens, LNCaP clone FGC cells, inhibition of proliferation, read-out: Compound IC50/nM. On the procedure: as §1, §2, §3, §4, §5
Assay [6] concerns metastatic castration resistant prostate cancer. Nature of the assay: Clinical study in patients with metastatic castration resistant prostate cancer. Conditions: among 11 mCRPC patients with response evaluation data (10 at 12 mg, 1 at 10 mg), oral once daily, 28-day cycles. It is filed as in vivo, human. On the procedure: Test medicament: compound 29, the structure of which is shown above, and which was prepared as described in the detailed description of WO2018108079A1.
Inclusion criteria: patients with histopathologically or cytologically confirmed metastatic castration resistant prostate cancer for which no standard therapy is available.
Dosing regimen: compound 29 was administered orally at a prescribed dose (such as 8 mg, 10 mg, or 12 mg) once daily, with 28 consecutive days of administration being one cycle.
Response evaluation: among the 11 patients with response evaluation data (10 patients received a single dose of 12 mg, and 1 patient received a single dose of 10 mg), 7 patients achieved partial response (PR), and 2 patients reported stable disease (SD).

With `C[C@]12CC[C@H](O)CC1=CC[C@@H]1[C@@H]2CC[C@]2(C)C(c3cccnc3)=CC[C@@H]12` [Abiraterone, reference compound], in assay [1], the “Tumor volume (mm^3)” value was found to be 1549.43 ± 533.15 mm^3 and the “TGI (%)” value is reported as −8.97%.
Take `Cc1[nH]nc2c1N=C(c1ccccc1Cl)c1cnc(N3CCOCC3)cc1N2` [Compound 29]: the IC50 was below 1000 nM in assay [2], below 1000 nM in assay [3], below 1000 nM in assay [4] and 1000 to 10000 nM in assay [5]. In assay [1], the “Tumor volume (mm^3)” value is 622.23 ± 247.3 mm^3. The “TGI (%)” value in assay [1] came to 58.07%. In addition, the “patients achieved partial response (PR)” value in assay [6] is given as 7 patients.
